Test [1] concerns A549 cell. In words: RT-qPCR detection of nucleic acid delivered by lipid into A549 cells. The format is cell-based, human. The procedure:
(§1) 3.1 NCI-N87 cell (gastric cancer cell), MRC-5 cell (lung fibroblast), A549 cell (lung cancer cell) were cultured to logarithmic growth phase, and then plated to a six-well plate at cell density of 1×10^6/2 mL medium/well; MRC-5 cell was cultured in Eagle's MEM medium (MEM, Gibco); A549 cell was cultured in Ham's F-12 medium (HyClone); NCI-N87 cell was cultured in RPMI-1640 medium (HyClone); followed by incubation overnight at 37° C., and the follow-up experiments were performed after the cells were attached to the walls.
4) Lipid nucleic acid mixture: the mixture of lipid and HJT-sRNA-m7 prepared from the step 2 were added into cells and mixed, and the final concentration of RNA was kept at 200 nM.
(§2) 3.3 After co-incubation with the small RNA for 3 hours, the cells were washed 2-3 times with PBS. The cells were harvested with TRIzol lysis buffer, and the total RNA was extracted. The abundance of small RNA that entered cells was detected by RT-qPCR, and the localization of RNA was detected by fluorescence in situ hybridization; protocols of each detection method were as follows:
3.3.1 RT-qPCR Detection of Small RNA (Taqman Probe Method)
(§3) 3.3.2 RT-qPCR Detection of Small RNA (SYBR Green Dye Method)
Mixtures of soybean PC, lipid No. 11 (18:0/18:2) and lipid No. 12 (16:0/18:2), and various small RNA (see below Table 3) were prepared by the reverse evaporation method and then added into A549 cell line (the final concentration of sRNA was 200 nM); the negative control group (control) was directly added with the same concentration of sRNA; the positive control group (RNAimax) was transfected with Lipofectamine RNAimax (transfection reagent 6 μl/well). The abundance of sRNA in the cells was detected by Taqman probe after 3 hours, and the relative expression level of sRNA was calculated by 2-ΔCt method.
3.1.3 After co-incubation with cells for 12-24 hours, the cells were washed twice with PBS. The cells were harvested with TRIzol lysis buffer (purchased from Sigma-Aldrich), and total RNA was extracted. The abundance of HJT-sRNA-m7 that entered the cells was detected by RT-qPCR; the protocols were as follows:
4368813) was used to reverse transcribe sRNA to cDNA by stem-loop method (see, e.g. Real-time quantification of microRNAs by stem-loop RT-PCR, Nucleic Acids Res. 2005 Nov. 27; 33(20):e179, incorporated by reference herein).

The test system of test [2] is A549 cells. The test can be described thus: Confocal fluorescence microscopy of nucleic acid delivered by lipid in cells. The format is cell-based, human. The following applies: 4 μl lipid, boiling method; 6 hours of co-incubation. The procedure:
Experimental materials: A549 cells (purchased from the Cell Center of the Chinese Academy of Medical Sciences), PGY-sRNA-6-Cy3 (purchased from Ribobio Biotechnology Co., Ltd.), lipid No. 41, Zeiss LSM780 (purchased from Zeiss, Germany), Alexa Fluor® 488 phalloidin (purchased from Invitrogen, USA), DAPI (purchased from Invitrogen, USA), paraformaldehyde (purchased from sigma, USA).
Experimental methods: PGY-sRNA-6-FAM was dissolved in 100 μl water, mixed with 4 μl lipid, and prepared by the boiling method. Then the mixture was dropped into A549 cells, and after 6 hours of co-incubation, the samples were washed three times with PBS, fixed with 4% paraformaldehyde, washed three times with PBS, stained with Alexa Fluor® 488 phalloidin for 30 min, washed 3 times with PBS, and stained with DAPI for 5 min, washed with PBS, and then sealed.
Experimental method: PGY-sRNA-6-FAM was dissolved in 100 μl water, and mixed with 4 μl lipid, and prepared by boiling method. Then, the mixture was dropped into A549 cells, and after 6 hours of co-incubation, the samples were washed three times with PBS, fixed with 4% paraformaldehyde, washed three times with PBS, stained with Alexa Fluor® 488 phalloidin for 30 min, washed 3 times with PBS, and stained with DAPI for 5 min, PBS washed, and then sealed.

The test system of test [3] is MRC-5 cell. In words: RT-qPCR detection of nucleic acid delivered by lipid into MRC-5 cells. The format is cell-based. On the procedure:
as §1, §2, §3
The stem-loop primer used in the reverse transcription process was synthesized by Beijing Tsingke Biotechnology Co., Ltd. (U6 RT primer: […] ATG (SEQ ID NO: 21); HJT-sRNA-m7 RT stem-loop primer: […] AA (SEQ ID NO: 22)).
Both the forward and reverse primers of the amplification reaction were designed and synthesized by Beijing Tsingke Biotechnology Co., Ltd. (U6 F Primer: […] (SEQ ID NO: 23), U6 R Primer: […] (SEQ ID NO: 24), HJT-sRNA-m7 F Primer: […] (SEQ ID NO: 25), HJT-sRNA-m7 R Primer: […] (SEQ ID NO: 26)).
3) The relative expression level was calculated by 2-ΔCt method.
3.1.3 After co-incubation with cells for 12-24 hours, the cells were washed twice with PBS. The cells were harvested with TRIzol lysis buffer (purchased from Sigma-Aldrich), and total RNA was extracted.
For orientation: In qPCR the cycle at which signal appears reflects the starting amount.

Test [4] concerns A549 cells. In words: Flow cytometry detection of the efficiency of nucleic acid delivery by lipid. The format is cell-based, human. The following applies: boiling method. The procedure: Experimental materials: A549 cells (purchased from the Cell Center of the Chinese Academy of Medical Sciences), FAM-sRNA (purchased from Ribobio Biotechnology Co., Ltd.), lipid No. 41, Accuri® C6 instrument (purchased from BD, USA).
Experimental methods: PGY-sRNA-6-FAM was dissolved in 100 μl water, mixed with 4 μl lipid, and prepared by boiling method. Then the mixture was dropped into A549 cells, and after 6 hours of co-incubation, the samples were collected for detection as follows: firstly wash three times with PBS, then digest with trypsin for 3 minutes and remove trypsin, wash with PBS again and then blow down the cells. The detection was performed using Accuri® C6 instrument.
Experimental Method: PGY-sRNA-6-FAM was dissolved in 100 μl water, and mixed with 4 μl lipid, and prepared into lipid-sRNA mixture by boiling method. Then, the mixture was dropped into A549 cells, and after 6 hours of co-incubation, the samples were collected and washed three times with PBS, then digested with trypsin into single cells, washed with re-suspended with PBS and then blown down for Accuri® C6 instrument detection.
Experimental Method: FAM-sRNA was dissolved in 100 μl water, and mixed with 4 μl lipid, prepared by boiling method. Then, the lipid-sRNA mixture was dropped into A549 cells, and after 6 hours of co-incubation, the samples were collected and washed three times with PBS, then digested into single cells with trypsin, re-suspended with PBS and then blown down for Accuri® C6 instrument detection.
Background: A flow cytometer gives signals particle by particle.

The nature of test [5]: In vivo delivery of single-stranded sRNA by single lipid via gavage (blood, stomach, small intestine, liver). Further details: species or system C57 mice. The following applies: 10 μl lipid, 1 nmol each sRNA (PGY-sRNA-23/-26/-32), heating method, 6 hours or 12 hours after administration. The text has this:
Tissues sampled: live/stomach/small intestine.

In test [6] the test system is A549 cells. The test can be described thus: Digital PCR (ddPCR) detection of the efficiency of nucleic acid delivery by lipid. The format is cell-based, human. The procedure:
2.2 Experimental method: the total cellular RNA was collected and extracted by TRIzol lysis buffer according to the above methods, and reverse transcribed to cDNA using High capacity cRNA Reverse Transcription Kit, and the cDNA from different groups was subject to digital PCR reaction. Refering to the QX200 Droplet Reader and QuantaSoft Software manual for the protocols, the results were analyzed using QuantaSoft software.
2.2 Experimental method: total RNA was collected and extracted by TRIzol lysis buffer according to the above method, and reverse transcribed to cDNA using High capacity cRNA Reverse Transcription Kit, and the cDNA from different groups was subjected to digital PCR reaction. Refer to the QX200 Droplet Reader and QuantaSoft Software manual for the protocols; the results were analyzed using QuantaSoft software.
2.2 Experimental method: Total RNA was collected and extracted by TRIzol lysis buffer according to the above method, and reverse transcribed to cDNA using TaqMan™ MicroRNA Reverse Transcription KitHigh, and the cDNA from different groups was subjected to digital PCR reaction. Refer to the QX200 Droplet Reader and QuantaSoft Software manual for the protocols; the results were analyzed using QuantaSoft software.
2.2 Experimental method: Total RNA was collected and extracted by TRIzol lysis buffer according to the above method, and reversed to cDNA using High capacity cRNA Reverse Transcription Kit, and the cDNA from different groups was subjected to digital PCR reaction. Refer to the QX200 Droplet Reader and QuantaSoft Software manual for the protocols; the results were analyzed using QuantaSoft software.

[7] abbreviates: boiling (heating) method, RNA 100 nM, 2.5 μL single lipid, 12 hours.
The mark [8] stands for this setting: boiling (heating) method, RNA 100 nM, 12 hours (No. 37: 3 hours).
Setting [9] is: reverse evaporation method, 6 hours (No. 39: 6 hours, 12 hours).

“Also recorded” adds a separate entry of the source.

In the case of `CCCCCC/C=C\CCCCCCCC(=O)O[C@H](COC(=O)CCCCCCCCCCCCCCC)COP(=O)(O)OCCN` [No. 38, (2-aminoethoxy)[(2R)-2-[(9Z)-hexadec-9-enoyloxy]-3-(hexadecanoyloxy)propoxy]phosphinic acid], the “delivery of double-stranded HJT-sRNA-m7 by single lipid (real-time PCR)” value in test [1] (setting [7]) is “delivered double-stranded RNA into A549 and MRC-5 cells”; in test [3] (boiling (heating) method, RNA 100 nM), “delivered double-stranded RNA into A549 and MRC-5 cells; also recorded: about twice that of RNAiMAX”. In addition, the “delivery of single-stranded HJT-sRNA-m7 by single lipid (real-time PCR)” value in test [1] (setting [8]) and in test [3] (setting [8]) was “the efficiency of delivery was much higher than that of RNAiMAX” in each case. Besides, in test [2], the “entry of PGY-sRNA-6-Cy3 observed under the confocal microscopy” value is reported as “could effectively deliver double-stranded nucleic acid into A549 cells”. Moreover, in test [3] (Example 2-1, FIG. 33, double-stranded 100 nM, boiling method 100° C. 30 min, 24 hours), the “amount of HJT-sRNA-m7 that entered the cells (RT-qPCR)” value is “effectively delivered nucleic acids into MRC-5 cells, showing an effect close to the transfection reagent RNAiMAX”. For the same molecule, the “efficiency in delivering PGY-sRNA-6 single-stranded RNA (flow cytometry)” value in test [4] (PGY-sRNA-6-FAM, 4 μl lipid, 6 hours of co-incubation) is 72.5%. In addition, the “efficiency of nucleic acid delivery by flow cytometry, in words” value in test [4] (PGY-sRNA-6-FAM, 6 hours) is listed as “close to that of the positive control RNAiMAX”. The “entry of single-stranded small RNA into mouse blood (RT-qPCR)” value in test [5] is “could effectively deliver sRNA single-stranded nucleic acid into mouse blood via oral administration; also recorded: the delivery effect was better than POPC and Lipofectamine RNAiMAX”. Besides, the “delivery of HJT-sRNA-m7 dsRNA (ddPCR)” value is “could effectively deliver HJT-sRNA-m7 dsRNA into A549 cells” in test [6] (boiling method, 6 hours) and “could effectively deliver HJT-sRNA-m7 dsRNA into A549 cells” in test [6] (setting [9]).
Turning to `CCCCCC/C=C\CCCCCCCCCC(=O)O[C@H](COC(=O)CCCCCCC/C=C\CCCCCC)COP(=O)(O)OCCN` [No. 39, (2-aminoethoxy)[(2R)-3-[(9Z)-hexadec-9-enoyloxy]-2-[(11Z)-octadec-11-enoyloxy]propoxy] phosphinic acid], in test [6] (setting [9]), the “delivery of HJT-sRNA-m7 dsRNA (ddPCR)” value was “could effectively deliver HJT-sRNA-m7 dsRNA into A549 cells”.
Regarding `CCCCCCCC/C=C\CCCCCCCCCCCCCC(=O)O[C@H](COC(=O)CCCCCCCCCCCCCC)COP(=O)(O)OCCN` [No. 64, 1-pentadecanoyl-2-nervonoyl-sn-glycero-3-phosphoethanolamine], the “delivery of double-stranded HJT-sRNA-m7 by single lipid (real-time PCR)” value was “delivered HJT-sRNA-m7 double-stranded RNA into A549 cells” in test [1] (setting [7]) and “delivered HJT-sRNA-m7 double-stranded RNA into A549 cells” in test [1] (reverse evaporation method, RNA 100 nM, 12 hours). In test [1] (double-stranded HJT-sRNA-m7 100 nM, boiling method, 12 hours, FIG. 96), the “delivery effect relative to RNAiMAX (real-time PCR)” value is recorded as “about 3 times that of RNAiMAX”. Moreover, in test [2], the “entry of PGY-sRNA-6-Cy3 observed under the confocal microscopy” value is reported as “could effectively deliver single-stranded RNA into A549 cells”. Further, the “efficiency of delivering PGY-sRNA-6 single-stranded RNA relative to RNAiMAX (flow cytometry)” value in test [4] (6 hours, FIG. 97) was “½”. In test [5], the “entry of single-stranded small RNA into mouse blood (RT-qPCR)” value is “could effectively deliver sRNA single-stranded nucleic acid into mouse blood via oral administration; also recorded: the delivery effect was better than POPC and Lipofectamine RNAiMAX”.

These data come from patent US20210108198A1, “APPLICATION OF COMPOUND OR TRADITIONAL CHINESE MEDICINE EXTRACT IN PREPARATION OF NUCLEIC ACID DELIVERY AGENT AND RELATED PRODUCTS THEREOF” (INSTITUTE OF BASIC MEDICAL SCIENCES CHINESE ACADEMY OF …, priority 2017, published 2021).
